The values that follow come from BindingDB's records for doi:10.1016/S0002-8703(03)00398-3 (University of Maryland Hospital, 2003).

The assay addresses Prostaglandin G/H synthase 1 (Homo sapiens, UniProt P23219).

Sequence of Prostaglandin G/H synthase 1 (P23219 whole entry): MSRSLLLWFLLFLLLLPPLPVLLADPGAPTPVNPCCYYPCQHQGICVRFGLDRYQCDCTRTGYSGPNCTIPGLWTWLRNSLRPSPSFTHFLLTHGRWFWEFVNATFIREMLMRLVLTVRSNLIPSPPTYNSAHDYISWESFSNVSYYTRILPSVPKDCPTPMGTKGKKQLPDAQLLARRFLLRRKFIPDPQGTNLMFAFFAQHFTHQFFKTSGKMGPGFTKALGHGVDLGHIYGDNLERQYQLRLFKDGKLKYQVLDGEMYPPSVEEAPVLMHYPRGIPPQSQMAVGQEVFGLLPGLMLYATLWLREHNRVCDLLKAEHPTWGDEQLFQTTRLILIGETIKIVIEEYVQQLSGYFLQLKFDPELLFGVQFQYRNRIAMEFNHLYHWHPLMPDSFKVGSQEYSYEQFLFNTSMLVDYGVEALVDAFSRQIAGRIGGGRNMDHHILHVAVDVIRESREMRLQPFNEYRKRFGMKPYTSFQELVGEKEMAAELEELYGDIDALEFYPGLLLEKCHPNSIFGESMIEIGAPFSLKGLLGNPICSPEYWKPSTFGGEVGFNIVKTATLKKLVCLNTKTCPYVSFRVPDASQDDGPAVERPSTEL

For the compound `Cc1ccc(-c2ncc(Cl)cc2-c2ccc(S(C)(=O)=O)cc2)cn1`, the Ki is greater than 10 µM.
